The record followed here is BindingDB's records for doi:10.1016/0960-894X(96)00186-2 (1996).

A short description of assay [1]: Compound was tested for binding activity against Opioid receptor kappa 1 in bovine striatal membranes using 1 nM [3H]U-69593 as the radioligand.
Assay [2] is described as follows: Compound was tested for binding activity against Opioid receptor delta 1 in bovine striatal membranes using 0.2 nM [3H]p-CI-DPDPE as the radioligand.

Regarding `O=C(CSSCC(=O)N[C@@]12CCC(=O)[C@@H]3Oc4c(O)ccc5c4[C@@]31CCN(CC1CCC1)[C@@H]2C5)N[C@@]12CCC(=O)[C@@H]3Oc4c(O)ccc5c4[C@@]31CCN(CC1CCC1)[C@@H]2C5` [N-CBM-TAMO], the 50% inhibitory concentration (IC50) in assay [1] was 6.3 nM; in assay [2] it was 12 nM.
